“And” between values parts separate entries of the source, which are not always exact repeats. Equal entries are not always repeated.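 48-hour exposure; five concentrations; linearly interpolated endpoints. Abbreviation: GI50, concentration required for 50% inhibition of growth. At the TGI there is no net growth.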 *1 amine or outer side, *2 acyl side, *3 side chain or, on linkers, in order; H or OH if unused. Where a SMILES comes first, the peptide text is derived from it. Bridges are numbered along the chain shown (N, C = ends). Roman numbers before positions name the chains, in order. [ ]: non-standard residue; d: D form. Actinocin(9to1) = Cc1c2oc3c(C)ccc(C(=O)[*:1])c3nc-2c(C(=O)[*:2])c(N)c1=O; NMeV = CN[CH](C(=O)O)C(C)C; Sar = CNCC(=O)O
Experiments:
Assay in all cases: DTP human tumour cell line panel, 48 h
[1] = test system: MALME-3M melanoma
[2] = test system: TK-10 renal
[3] = test system: OVCAR-3 ovarian
[4] = test system: SNB-75 CNS
[5] = test system: SNB-19 CNS
[6] = test system: SR leukemia
[7] = test system: SK-MEL-28 melanoma
[8] = test system: HT29 colon
[9] = test system: COLO 205 colon
[10] = test system: UACC-257 melanoma

Row | Compound | TGI [1] | TGI [2] | TGI [3] | TGI [4] | TGI [5] | TGI [6] | TGI [7] | TGI [8] | TGI [9] | TGI [10] | GI50 [2] | GI50 [5]
1 | O=C(c1ccccc1)c1ccc2nc(-c3c(Cl)c(Cl)c(Cl)c(Cl)c3-c3nnc(-c4ccccc4)o3)[nH]c2c1 | > 100 µM | > 100 µM | > 100 µM | 84.4 µM | > 100 µM | 50.2 µM | > 100 µM | > 100 µM | > 100 µM | > 100 µM | – | –
2 | CSC(=S)Nc1cc(C)cc(C)n1 | > 31.6 µM | > 31.6 µM | > 31.6 µM | > 10 µM | > 31.6 µM | > 10 µM | > 31.6 µM | > 31.6 µM | > 31.6 µM | > 31.6 µM | – | –
3 | CC(=O)O[C@H]1CC[C@@]2(C)C(=CC[C@@H]3[C@@H]2CC[C@]2(C)C(=N/O)/C(=C\c4ccccc4)C[C@@H]32)C1 | 24.7 µM | 78.8 µM | 54.7 µM | > 100 µM | > 100 µM | > 42.3 µM | > 56.3 µM | > 100 µM | 32 µM | 37.3 µM | – | –
4 | CC(C(=O)OCc1ccccc1)N(Cc1ccccc1)Cc1ccccc1 (configuration not stated) | > 100 µM | > 100 µM | > 100 µM | > 100 µM | > 100 µM | > 100 µM | > 100 µM | > 100 µM | > 100 µM | > 100 µM | – | –
5 | O=C(O)CSc1ccccc1C(=O)O | > 100 µM | 53.5 µM | > 100 µM | > 100 µM | > 100 µM | > 100 µM | > 100 µM | > 100 µM | > 100 µM | 34.1 µM | – | –
6 | COC(=O)[C@@H]1CS(=O)(=O)C(C(C)C)N1C(C)=O (some centres not stated) | > 100 µM | > 100 µM | > 100 µM | > 100 µM | > 100 µM | > 100 µM | > 100 µM | > 100 µM | > 100 µM | > 100 µM | – | –
7 | COC(=O)C1CC2(C)C=CC1N(C(=O)OCc1ccccc1)C2 (configuration not stated) | > 100 µM | > 100 µM | > 100 µM | > 100 µM | > 100 µM | > 100 µM | > 100 µM | > 100 µM | > 100 µM | > 100 µM | – | –
8 | CCOC(=O)/C(C(N)=O)=C(\O)C(=O)/C(Br)=C(\O)c1ccccc1 | 29.2 µM | 33.2 µM | 41.4 µM | 32.1 µM | > 69.1 µM | 12.1 µM | 34.9 µM | > 70.8 µM | 33.4 µM | 31.8 µM | – | –
9 | CCOC(=O)C1CC(C(=O)c2ccccc2)N2c3ccccc3-c3ccccc3C12 (configuration not stated) | > 100 µM | > 100 µM | > 100 µM | > 100 µM | > 100 µM | 84.1 µM | > 100 µM | > 100 µM | > 100 µM | > 100 µM | – | –
10 | CCN1C/C(=C\c2ccc(Cl)cc2)c2nc(N)c(C#N)c(-c3ccc(Cl)cc3)c2C1 | > 100 µM | > 100 µM | > 100 µM | > 100 µM | > 100 µM | > 100 µM | > 100 µM | > 100 µM | > 100 µM | > 100 µM | – | –
11 | C(/C=N/NC1=NCCCCN1)=N\NC1=NCCCCN1 | > 100 µM | > 100 µM | > 100 µM | > 100 µM | > 100 µM | > 100 µM | > 100 µM | > 100 µM | > 100 µM | > 100 µM | – | –
12 | COc1cc2cc(C(=O)N3CC(COS(C)(=O)=O)c4ccc(NC(=O)OCc5ccccc5)cc43)[nH]c2c(OC)c1OC (configuration not stated) | > 100 µM | > 100 µM | > 100 µM | > 100 µM | > 100 µM | > 100 µM | > 100 µM | > 100 µM | > 100 µM | > 100 µM | – | –
13 | C=C(C(=O)O[C@H]1C/C(C)=C/CC/C(CO)=C/[C@H]2C(=O)OC(=C)[C@H]12)C(O)CO (some centres not stated) | 10.7 µM | 20.3 µM | 22.8 µM | 34.9 µM | 43.3 µM | 6.81 µM | 30.8 µM | 38.7 µM | 13.4 µM | 24.1 µM | – | –
14 | O=C(Nc1sccc1S(=O)(=O)c1ccc(Cl)cc1)c1ccc(F)cc1F | 96.4 µM | 42.7 µM | > 100 µM | 38.8 µM | 48.8 µM | 40.9 µM | > 100 µM | > 100 µM | > 100 µM | > 100 µM | – | –
15 | CC(C)(C)OC(=O)N/C(C=O)=C\C1CCCCC1 | 70.4 µM | 32.9 µM | 73.1 µM | > 100 µM | 76.1 µM | 42.8 µM | > 100 µM | 71.6 µM | 36.8 µM | 48 µM | – | –
16 | FC(F)(F)c1cc(N(C2c3ccccc3C=Cc3ccccc32)P(Cl)Cl)cc(C(F)(F)F)c1 | 36 µM | > 100 µM | 31.1 µM | 61.7 µM | 56.8 µM | 46.9 µM | 87.8 µM | > 100 µM | 51.6 µM | 39.9 µM | – | –
17 | COC(=O)C1=C(OC(=O)/C(=C/c2ccccc2)c2ccc(OC)cc2)C(C(=O)OC)[C@@]2(O)[C@@H](C(=O)OC)[C@H](C)C[C@@H]1[C@@H]2C(=O)OC (some centres not stated) | > 100 µM | > 100 µM | > 100 µM | > 100 µM | > 100 µM | > 100 µM | > 100 µM | > 100 µM | > 100 µM | > 100 µM | – | –
18 | Cn1nc2ccc(Nc3cc(=O)[nH]c4ccc5nn(C)nc5c34)cc2n1 | > 100 µM | > 100 µM | > 100 µM | > 100 µM | > 100 µM | > 100 µM | > 100 µM | > 100 µM | > 100 µM | > 100 µM | – | –
19 | Fc1cccc(F)c1C1SCc2nc3cc(Cl)c(Cl)cc3n21 (configuration not stated) | > 100 µM | > 100 µM | > 100 µM | > 100 µM | > 100 µM | > 100 µM | > 100 µM | > 100 µM | > 100 µM | > 100 µM | – | –
20 | NS(=O)(=O)c1nc(S(=O)(=O)O)c2[nH]cnc2n1 | > 100 µM | > 100 µM | > 100 µM | > 100 µM | > 100 µM | > 100 µM | > 100 µM | > 100 µM | > 100 µM | > 100 µM | – | –
21 | CCCC[C@@H](C)/C=C1\CN2CCC[C@H]2[C@@](C)(OCc2ccccc2)[C@@H]1O | > 50 µM | > 50 µM | > 28.7 µM | > 50 µM | > 50 µM | > 50 µM | > 50 µM | > 50 µM | > 50 µM | > 46.1 µM | – | –
22 | Cc1cc(S(=O)(=O)Nc2nc3ncccc3[nH]2)c(S)cc1Cl | > 100 µM | > 100 µM | > 100 µM | > 100 µM | > 100 µM | > 100 µM | > 100 µM | > 100 µM | > 100 µM | > 100 µM | – | –
23 | NC(Cc1ccc(OCc2ccccc2)cc1)C(=O)NC(Cc1ccccc1)C(=O)Oc1c(Cl)c(Cl)c(Cl)c(Cl)c1Cl (configuration not stated) | 35.3 µM | 28.9 µM | 28.9 µM | 29.6 µM | 34 µM | > 100 µM | 31.6 µM | 32.1 µM | 28.3 µM | 32.8 µM | – | –
24 | O=C1c2cc(Cc3ccccc3)c(=O)c(Cc3ccccc3)cc2C(=O)c2cc(Cc3ccccc3)c(=O)c(Cc3ccccc3)cc21 | > 100 µM | > 100 µM | > 100 µM | > 100 µM | > 100 µM | > 100 µM | > 100 µM | > 100 µM | > 100 µM | > 100 µM | – | –
25 | c1nc(NCCc2cnc[nH]2)c2[nH]cnc2n1 | > 100 µM | > 100 µM | > 100 µM | > 100 µM | > 100 µM | > 100 µM | > 100 µM | > 100 µM | > 100 µM | > 100 µM | – | –
26 | COc1ccccc1-n1c(=O)n(C)c(=O)n1C(C)(C)C | > 100 µM | > 100 µM | > 100 µM | > 100 µM | > 100 µM | > 100 µM | > 100 µM | > 100 µM | > 100 µM | > 100 µM | – | –
27 | Cc1c2oc3c(C)ccc(C(=O)NC4C(=O)NC(Cc5ccccc5)C(=O)N5CCCC5C(=O)N(C)CC(=O)N(C)C(C(C)C)C(=O)OC4C)c3nc-2c(C(=O)NC2C(=O)NC(Cc3ccccc3)C(=O)N3CCCC3C(=O)N(C)CC(=O)N(C)C(C(C)C)C(=O)OC2C)c(N)c1=O (configuration not stated) (I: TFP[Sar][NMeV] / II: TFP[Sar][NMeV]; ester I:1-I:C, II:1-II:C; linker I:N-II:N via Actinocin(9to1); configuration not given here) | 0.0187 µM | 1.65 µM and 5.66 µM | 0.0252 µM and 0.04 µM | 0.049 µM | 1.62 µM | < 0.001 µM | 0.0298 µM and 0.0417 µM | 0.0108 µM | 0.0112 µM and 0.0174 µM | 0.0577 µM | 0.0102 µM | < 0.001 µM
28 | C[C@@H]1[C@@H](C)C(c2ccccc2)O[Si]1(C(C)(C)C)C(C)(C)C (some centres not stated) | 37 µM | 29.9 µM | 30.1 µM | 29.9 µM | 18.3 µM | 29.3 µM | > 66.7 µM | 31 µM | 30.3 µM | 37.5 µM | – | –
29 | C[C@]12CC[C@H]3[C@@H](CCC4=CC(=O)C=C[C@@]43OC(=O)C(F)(F)F)[C@@H]1CCC2=O | > 100 µM | > 100 µM | > 100 µM | > 100 µM | > 100 µM | > 100 µM | > 100 µM | > 100 µM | > 100 µM | > 100 µM | – | –

From PubChem BioAssay (NCI)
